Activity calls are given as the source filed them.
Legend:
[1] = molecular target: T1, Fatty acid synthase (Homo sapiens, UniProt P49327); experiment: FAS thioesterase domain inhibitors, dose response, biochemical, kinetic fluorescence intensity (AID 624326); assay type: functional;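 also: rate of fluorescence rise from hydrolysis of a fluorogenic O-methyl fluorescein ester substrate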
[2] = molecular target: T1, Fatty acid synthase; experiment: FAS thioesterase domain inhibitors, dose response, biochemical, endpoint fluorescence intensity, uHTS hits (AID 624327); assay type: functional;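 also: fluorescence from hydrolysis of an O-methyl fluorescein acyl ester substrate by the enzyme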
[3] = HepG2 cell cytotoxicity, dose response, cytotoxicity control for Shn3 inhibitor project, CellTiter-Glo, cherry-picked (AID 624134); assay type: functional, cell-based
[4] = Shn3 3'UTR reporter inhibitors, dose response, cell-based, Clone20 osteoblasts, firefly luciferase, cherry-picked (AID 624132); assay type: functional;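 also: firefly luciferase luminescence from reporter carrying the Shn3 3'UTR in osteoblasts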
[5] = control 3'UTR Renilla luciferase suppression, dose response, counter-screen for Shn3 inhibitor project, cell-based, Clone20-Shn3RL, cherry-picked (AID 624133); assay type: functional
[6] = molecular target: Large T antigen (Simian virus 40, UniProt P03070); assay type: functional, Betapolyomavirus macacae;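 also: Confirmatory-stage PubChem screen for compounds that inhibit SV40 T antigen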
[7] = molecular target: T2, Calpain-2 catalytic subunit (Sus scrofa, UniProt P43367); experiment: pig calpain II inhibitor potency, dose response, biochemical, fluorogenic peptide substrate (AID 1420); assay type: functional
T2 sequence (P43367 whole entry): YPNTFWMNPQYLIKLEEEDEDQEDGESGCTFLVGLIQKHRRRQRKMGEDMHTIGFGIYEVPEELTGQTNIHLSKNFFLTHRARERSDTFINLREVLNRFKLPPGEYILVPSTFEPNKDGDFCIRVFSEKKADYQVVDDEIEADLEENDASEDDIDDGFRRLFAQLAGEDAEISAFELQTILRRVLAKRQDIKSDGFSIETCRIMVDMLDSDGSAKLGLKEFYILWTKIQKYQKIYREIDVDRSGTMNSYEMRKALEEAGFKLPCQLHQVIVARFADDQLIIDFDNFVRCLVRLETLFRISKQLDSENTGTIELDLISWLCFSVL

[8] = molecular target: T3, Rac GTPase-activating protein 1 (Homo sapiens, UniProt Q9H0H5); experiment: MgcRacGAP GTPase-activating activity inhibitors, confirmation, biochemical, ADP Hunter fluorescence, primary and confirmatory (AID 624330); assay type: functional
T3 sequence (Q9H0H5 whole entry): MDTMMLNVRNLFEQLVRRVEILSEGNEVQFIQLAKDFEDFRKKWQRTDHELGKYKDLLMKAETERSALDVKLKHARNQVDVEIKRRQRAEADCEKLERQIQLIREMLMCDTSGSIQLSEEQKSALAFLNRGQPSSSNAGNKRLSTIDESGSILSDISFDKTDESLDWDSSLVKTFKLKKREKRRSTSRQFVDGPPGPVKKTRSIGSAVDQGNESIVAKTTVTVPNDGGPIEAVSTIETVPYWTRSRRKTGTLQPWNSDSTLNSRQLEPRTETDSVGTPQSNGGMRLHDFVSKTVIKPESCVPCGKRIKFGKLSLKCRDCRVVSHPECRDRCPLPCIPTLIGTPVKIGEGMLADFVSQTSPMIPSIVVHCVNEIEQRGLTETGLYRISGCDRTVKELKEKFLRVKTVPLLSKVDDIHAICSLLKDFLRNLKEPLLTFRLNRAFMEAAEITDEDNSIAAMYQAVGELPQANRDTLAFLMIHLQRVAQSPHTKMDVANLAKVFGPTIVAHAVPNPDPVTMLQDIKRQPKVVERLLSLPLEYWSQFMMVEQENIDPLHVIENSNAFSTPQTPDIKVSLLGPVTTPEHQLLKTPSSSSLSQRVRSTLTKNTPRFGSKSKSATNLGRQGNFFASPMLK

[9] = molecular target: FAD-linked sulfhydryl oxidase ALR (Homo sapiens, UniProt P55789); experiment: inhibitors of human ALR sulfhydryl oxidase, dose response, biochemical, H2O2 detection, luminescence, cherry-pick (AID 493248)
[10] = molecular target: T4, Heat shock factor protein 1 (Mus musculus, UniProt P38532); experiment: inhibition of MG132-induced HSE-luciferase signal, confirmation, cell-based, NIH3T3, luminescence, dose retest (AID 2382); assay type: functional;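 also: NIH3T3 fibroblasts with HSF1-driven luciferase reporter stressed by proteasome inhibitor MG132; luminescence from HSF1-driven luciferase expression after 8 hours of MG132 stress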
T4 sequence (P38532 whole entry): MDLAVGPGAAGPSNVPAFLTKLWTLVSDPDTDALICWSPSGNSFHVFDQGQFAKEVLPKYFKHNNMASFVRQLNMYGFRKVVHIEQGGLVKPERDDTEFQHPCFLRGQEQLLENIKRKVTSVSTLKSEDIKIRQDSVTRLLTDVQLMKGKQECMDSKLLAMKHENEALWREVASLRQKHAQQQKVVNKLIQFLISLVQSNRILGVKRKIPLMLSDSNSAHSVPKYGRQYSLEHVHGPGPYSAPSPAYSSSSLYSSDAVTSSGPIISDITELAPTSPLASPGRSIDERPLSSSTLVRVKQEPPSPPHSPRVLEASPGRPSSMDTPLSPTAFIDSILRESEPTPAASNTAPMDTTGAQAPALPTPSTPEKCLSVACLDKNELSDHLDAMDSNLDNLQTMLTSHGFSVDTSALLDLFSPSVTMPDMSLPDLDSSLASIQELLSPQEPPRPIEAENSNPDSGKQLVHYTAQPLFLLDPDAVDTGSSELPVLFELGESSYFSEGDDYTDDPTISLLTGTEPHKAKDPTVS

[11] = cells; assay type: functional, cell-based
[12] = cells; assay type: functional, cell-based; remark: listed apart in the source
[13] = molecular target: T4, Heat shock factor protein 1; experiment: HSF1 potentiators in luciferase reporter cells, confirmation, cell-based, NIH3T3, luminescence, dose retest (AID 435004); assay type: functional;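 also: stress induced by proteasome inhibitor MG132 added 30 min after compound; luciferase reporter driven by HSF1 response element in NIH3T3 cells; actives raise luminescence as potentiators of the MG132 stress response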
[14] = test system: INS1; experiment: beta cell apoptosis inhibitors, cytokine rescue, dose response, luminescence, retest (AID 449756); assay type: functional, cell-based; conditions: Rattus norvegicus;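 also: cell death triggered by IL-1 beta plus TNF-alpha plus IFN-gamma mixture; protective hits raise ATP signal compared with cytokine alone wells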
[15] = cytotoxicity toward NIH3T3 fibroblasts, dose response, counter-screen, cell-based, ATP luminescence, mouse fibroblasts (AID 2010); assay type: functional;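 also: cells exposed to compound for about 90 hours before reading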
[16] = inhibitors of intracellular T. cruzi replication, confirmation, NIH3T3 host cells, beta-gal luminescence (AID 2044); assay type: functional, cell-based;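 also: intracellular parasites grown in NIH/3T3 mouse fibroblasts as host cells; luminescent beta-galactosidase reporter signal from transgenic T. cruzi replicating inside host cells; inhibitors lower the luminescence signal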
[17] = molecular target: T5, Streptokinase A (Streptococcus pyogenes serotype M1, UniProt P10520); experiment: S. pyogenes streptokinase expression inhibitors, potency, dose response, plasminogen activation absorbance, OD405 (AID 1914); assay type: functional, Streptococcus pyogenes M1 GAS;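 also: secreted streptokinase activity via plasminogen activation per viability signal from cell pellet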
T5 sequence (P10520 whole entry): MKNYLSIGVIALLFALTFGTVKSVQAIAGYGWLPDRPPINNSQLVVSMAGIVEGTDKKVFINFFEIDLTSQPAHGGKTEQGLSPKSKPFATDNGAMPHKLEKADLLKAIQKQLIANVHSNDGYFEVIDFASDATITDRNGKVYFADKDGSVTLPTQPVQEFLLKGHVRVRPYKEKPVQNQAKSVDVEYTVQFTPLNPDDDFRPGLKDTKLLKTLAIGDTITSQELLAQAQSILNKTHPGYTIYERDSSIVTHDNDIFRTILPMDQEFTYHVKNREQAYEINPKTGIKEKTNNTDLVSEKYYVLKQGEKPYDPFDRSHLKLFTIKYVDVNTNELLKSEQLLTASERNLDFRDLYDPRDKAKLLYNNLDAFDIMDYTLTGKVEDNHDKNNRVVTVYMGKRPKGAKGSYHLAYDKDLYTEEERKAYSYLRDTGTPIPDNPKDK

[18] = test system: Streptococcus; experiment: Group A Streptococcus viability loss, dose response, counter-screen for streptokinase expression inhibitor project, luminescence, BacTiterGlo (AID 1915); assay type: functional, organism-based;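 also: potency for reduction of bacterial viability or growth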
[19] = test system: Streptococcus sp. 'group A'; experiment: growth inhibition of control SK(-) GAS strain, dose response, counter-screen for streptokinase expression inhibitor project, luminescence, kanamycin, BacTiterGlo, confirmation (AID 1900); assay type: functional, organism-based
[20] = microbe, parasite or virus in culture; assay type: functional; conditions: Mycobacterium tuberculosis
[21] = Luminescence Cell-Based Dose Retest to Confirm Inhibitors of Cancer Stem Cells. [Related pubchem assays (depositor defined):AID2717, AID2721]; assay type: functional; conditions: Homo sapiens

T1 sequence (P49327 whole entry, the tested form may be a part): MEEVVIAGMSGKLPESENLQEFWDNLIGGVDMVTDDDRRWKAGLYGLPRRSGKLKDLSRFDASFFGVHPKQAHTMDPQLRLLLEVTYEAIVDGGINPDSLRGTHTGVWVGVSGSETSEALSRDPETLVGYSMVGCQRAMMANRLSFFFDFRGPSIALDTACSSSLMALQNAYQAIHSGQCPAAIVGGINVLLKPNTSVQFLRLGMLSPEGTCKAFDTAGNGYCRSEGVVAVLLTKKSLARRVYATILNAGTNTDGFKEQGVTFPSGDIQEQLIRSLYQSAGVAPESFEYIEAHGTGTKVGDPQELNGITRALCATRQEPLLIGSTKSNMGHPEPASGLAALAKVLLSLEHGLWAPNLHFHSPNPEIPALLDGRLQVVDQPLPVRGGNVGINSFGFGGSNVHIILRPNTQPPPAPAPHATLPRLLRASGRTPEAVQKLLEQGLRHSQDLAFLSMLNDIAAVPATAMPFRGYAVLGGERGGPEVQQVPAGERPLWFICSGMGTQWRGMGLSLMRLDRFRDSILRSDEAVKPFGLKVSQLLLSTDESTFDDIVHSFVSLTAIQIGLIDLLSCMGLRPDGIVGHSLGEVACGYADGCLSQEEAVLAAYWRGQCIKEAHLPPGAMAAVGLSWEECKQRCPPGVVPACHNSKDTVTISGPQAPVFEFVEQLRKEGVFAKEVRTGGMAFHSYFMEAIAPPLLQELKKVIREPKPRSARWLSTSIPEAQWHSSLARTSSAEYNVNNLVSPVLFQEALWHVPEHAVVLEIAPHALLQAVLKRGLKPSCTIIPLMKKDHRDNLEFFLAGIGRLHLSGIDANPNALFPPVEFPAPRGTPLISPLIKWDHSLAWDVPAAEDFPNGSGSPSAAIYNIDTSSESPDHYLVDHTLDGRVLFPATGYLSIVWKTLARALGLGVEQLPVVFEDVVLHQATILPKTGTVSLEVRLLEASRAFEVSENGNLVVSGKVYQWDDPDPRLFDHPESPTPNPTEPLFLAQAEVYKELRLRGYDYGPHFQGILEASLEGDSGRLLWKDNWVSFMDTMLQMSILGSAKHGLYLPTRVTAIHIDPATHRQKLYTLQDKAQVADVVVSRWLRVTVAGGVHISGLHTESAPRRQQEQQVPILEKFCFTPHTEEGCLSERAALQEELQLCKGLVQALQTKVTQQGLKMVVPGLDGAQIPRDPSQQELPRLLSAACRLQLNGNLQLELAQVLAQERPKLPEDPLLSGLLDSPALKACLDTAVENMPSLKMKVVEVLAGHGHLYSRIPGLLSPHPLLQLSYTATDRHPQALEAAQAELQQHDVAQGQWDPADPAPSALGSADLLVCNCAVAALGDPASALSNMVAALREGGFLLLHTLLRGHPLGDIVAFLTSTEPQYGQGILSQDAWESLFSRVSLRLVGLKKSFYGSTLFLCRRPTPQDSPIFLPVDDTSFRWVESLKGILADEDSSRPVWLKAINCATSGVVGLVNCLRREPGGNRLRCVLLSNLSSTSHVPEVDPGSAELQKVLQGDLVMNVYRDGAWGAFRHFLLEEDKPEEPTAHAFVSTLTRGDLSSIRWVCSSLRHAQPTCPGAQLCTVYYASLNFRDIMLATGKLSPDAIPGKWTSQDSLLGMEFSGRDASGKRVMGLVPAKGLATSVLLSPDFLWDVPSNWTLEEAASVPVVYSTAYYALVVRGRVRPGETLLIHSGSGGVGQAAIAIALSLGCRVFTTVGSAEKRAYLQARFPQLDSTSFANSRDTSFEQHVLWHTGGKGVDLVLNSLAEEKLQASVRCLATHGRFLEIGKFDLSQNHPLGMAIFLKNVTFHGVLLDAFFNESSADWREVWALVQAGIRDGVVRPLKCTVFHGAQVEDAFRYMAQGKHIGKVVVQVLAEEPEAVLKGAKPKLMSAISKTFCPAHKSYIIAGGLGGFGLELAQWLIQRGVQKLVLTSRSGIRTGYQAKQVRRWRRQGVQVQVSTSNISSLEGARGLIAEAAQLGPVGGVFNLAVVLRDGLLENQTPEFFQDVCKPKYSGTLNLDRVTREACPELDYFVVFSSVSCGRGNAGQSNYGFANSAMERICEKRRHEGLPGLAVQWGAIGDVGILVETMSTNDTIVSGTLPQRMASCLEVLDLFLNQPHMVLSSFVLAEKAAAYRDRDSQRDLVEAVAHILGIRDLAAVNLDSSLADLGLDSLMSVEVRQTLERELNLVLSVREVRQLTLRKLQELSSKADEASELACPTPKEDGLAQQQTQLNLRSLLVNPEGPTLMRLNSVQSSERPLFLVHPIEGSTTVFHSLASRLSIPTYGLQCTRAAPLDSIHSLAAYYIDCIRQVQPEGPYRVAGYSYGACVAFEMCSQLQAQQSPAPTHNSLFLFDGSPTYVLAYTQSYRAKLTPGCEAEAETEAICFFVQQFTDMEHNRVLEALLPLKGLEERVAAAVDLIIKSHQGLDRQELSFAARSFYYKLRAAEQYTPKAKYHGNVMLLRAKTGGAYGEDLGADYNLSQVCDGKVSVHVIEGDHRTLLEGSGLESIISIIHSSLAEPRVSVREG
Sequence of Large T antigen (P03070 whole entry): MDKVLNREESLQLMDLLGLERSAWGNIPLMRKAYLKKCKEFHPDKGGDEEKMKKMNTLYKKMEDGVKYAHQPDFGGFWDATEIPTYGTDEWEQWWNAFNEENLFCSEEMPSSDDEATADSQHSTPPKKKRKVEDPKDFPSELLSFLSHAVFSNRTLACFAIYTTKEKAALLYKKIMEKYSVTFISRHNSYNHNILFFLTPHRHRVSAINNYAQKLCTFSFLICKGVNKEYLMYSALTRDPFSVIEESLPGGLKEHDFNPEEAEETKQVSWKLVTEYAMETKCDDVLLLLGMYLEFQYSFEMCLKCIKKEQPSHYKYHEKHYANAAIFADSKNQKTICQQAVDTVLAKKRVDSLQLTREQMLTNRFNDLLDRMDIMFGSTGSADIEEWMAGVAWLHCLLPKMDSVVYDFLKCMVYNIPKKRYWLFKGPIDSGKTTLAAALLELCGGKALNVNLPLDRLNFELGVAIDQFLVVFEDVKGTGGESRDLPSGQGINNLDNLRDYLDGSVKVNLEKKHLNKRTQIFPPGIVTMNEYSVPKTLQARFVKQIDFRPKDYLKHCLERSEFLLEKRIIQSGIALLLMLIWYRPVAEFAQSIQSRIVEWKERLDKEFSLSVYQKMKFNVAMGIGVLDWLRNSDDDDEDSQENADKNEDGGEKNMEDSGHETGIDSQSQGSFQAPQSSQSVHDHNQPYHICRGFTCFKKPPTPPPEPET
Sequence of FAD-linked sulfhydryl oxidase ALR (P55789 whole entry): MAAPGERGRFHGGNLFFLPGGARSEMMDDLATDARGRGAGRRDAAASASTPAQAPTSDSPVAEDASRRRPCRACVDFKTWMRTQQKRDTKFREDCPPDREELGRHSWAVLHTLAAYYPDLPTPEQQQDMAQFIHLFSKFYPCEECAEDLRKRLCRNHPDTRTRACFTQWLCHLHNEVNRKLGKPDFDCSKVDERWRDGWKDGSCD

## Cc1csc(NC(=O)C2CCN(S(=O)(=O)c3ccc4c(c3)oc(=O)n4C)CC2)n1
[1]
  IC50: 6.81 µM (active)
[2]
  IC50: 8.65 µM (active)

## Cc1ccc(-n2ncc3c(N4CCN(c5ccc(F)cc5)CC4)ncnc32)c(C)c1
[3]
  AC50: 2.94 µM (active)
[4]
  AC50: 3.24 µM (active)
[5]
  AC50: 5.66 µM (active)

## COc1cc(/C=N/NC(=O)c2nnn(-c3nonc3N)c2-c2cccs2)ccc1O
[6]
  IC50: 19.4 µM (active)

## COc1cc(/C=N/NC(=O)C2COc3ccccc3O2)ccc1O (centres undefined)
[6]
  IC50: 8.24 µM (active)

## O=C(O)c1cc(NN=Nc2ccc(Br)cc2)cc([N+](=O)[O-])c1
[7]
  IC50: 12.6 µM (not active)
[1]
  IC50: 6.81 µM (active)
[2]
  IC50: 5.49 µM (active)

## COc1ccc(NC2CCCN(C(=O)CCc3cn[nH]c3)C2)cc1 (centres undefined)
[8]
  IC50: 108 µM (active)
[9]
  AC50: 2.19 µM (active)

## CN(C)c1ccc(NS(=O)(=O)c2cc(Cl)ccc2Cl)cc1
[8]
  IC50: 57.7 µM (active)
[10]
  EC50: > 195 µM (not active)

## CCN(C(=O)CSc1ncnc2c1cnn2-c1ccccc1)C1CCS(=O)(=O)C1 (centres undefined)
[1]
  IC50: 4.94 µM (active)
[2]
  IC50: 5.88 µM (active)

## O=S(=O)(c1ccc(C(F)(F)F)cc1)N1CCC(c2nc(O)c3nnn(Cc4ccc(F)cc4)c3n2)CC1
[11]
  EC50: > 350 µM (not active)
[12]
  EC50: > 350 µM (not active)

## Cc1cccc(/C=N\NC(=O)c2ccc(Cl)cc2)c1O
[13]
  EC50: 91 µM (active)
[14]
  AC50: 0.597 µM (active)
[11]
  EC50: > 350 µM (not active)
[15]
  EC50: 9.57 µM (active)
[16]
  EC50: 0.877 µM (active)
[12]
  EC50: 6.37 µM (active)

## COc1ccc(-n2c(SCc3ccc([N+](=O)[O-])cc3)nnc2-c2ccccc2)cc1
[1]
  IC50: 3.44 µM (active)
[2]
  IC50: 5.24 µM (active)

## Cc1cccc(COC[C@H](CC(C)C)N2CCN(C(=O)c3ccc(C(C)(C)C)cc3)CCC2=O)c1
[1]
  IC50: 7.54 µM (active)
[2]
  IC50: 7.65 µM (active)

## CN1CCN(S(=O)(=O)c2ccc(Sc3nnnn3-c3ccccc3)c([N+](=O)[O-])c2)CC1
[3]
  AC50: > 70 µM (inactive)
[4]
  AC50: 3.9 µM (active)
[5]
  AC50: 7.28 µM (active)

## CC(C)C1C(=O)N(Cc2cn(CCC3OCCO3)nn2)CCS(=O)(=O)N1Cc1ccc(-c2ccc(Cl)c(Cl)c2)cc1 (centres undefined)
[3]
  AC50: > 70 µM (inactive)
[4]
  AC50: 1.28 µM (active)
[5]
  AC50: 3.36 µM (active)

## COC(=O)C1=C(c2ccc(-c3ccccc3)c(F)c2)C[C@@H]2CC[C@H]1N2C(=O)NCC1CC1
[3]
  AC50: > 70 µM (inactive)
[4]
  AC50: 4.32 µM (active)
[5]
  AC50: 30.6 µM (active)

## O=Cc1cccn1-c1ccc(O)cc1
[6]
  IC50: > 100 µM (active)

## c1cnc(N2CCN(c3ccc4ccccc4n3)CC2)nc1
[13]
  EC50: > 260 µM (inactive)
[11]
  EC50: > 350 µM (not active)
[12]
  EC50: 11.9 µM (active)

## N#Cc1ccccc1S(=O)(=O)N1CCN(c2cnccn2)CC1
[11]
  EC50: > 350 µM (not active)
[12]
  EC50: > 350 µM (not active)

## O=C(O)c1cc(N/N=C/c2cccc3ccccc23)ccc1Cl
[6]
  IC50: > 100 µM (active)

## O=C(COC(=O)c1cc([N+](=O)[O-])ccc1N1CCOCC1)Nc1cc(F)ccc1F
[1]
  IC50: 1.57 µM (active)
[2]
  IC50: 2.25 µM (active)

## Cc1ccccc1/C=C/C(=O)c1ccc([N+](=O)[O-])o1
[6]
  IC50: 83.2 µM (active)
[17]
  EC50: 50.9 µM (inconclusive)
[14]
  AC50: 3.15 µM (active)
[18]
  EC50: 10.6 µM (active)
[19]
  EC50: 2.37 µM (active)

## N#Cc1c(-c2ccccc2)c(-c2ccccc2)nn(CC(=O)NNC(=O)Nc2ccc(Cl)c(Cl)c2)c1=O
[17]
  EC50: 4 µM (active)
[1]
  IC50: 8.07 µM (active)
[18]
  EC50: 103 µM (active)
[20]
  CC50: 32.9 µM (active)
[19]
  EC50: 5.78 µM (active)
[21]
  AC50: 1.75 µM (active)
[2]
  IC50: 7.91 µM (active)

## O=S(=O)(c1cccc(C(F)(F)F)c1)N1CCC(c2nc(O)c3nnn(Cc4cccc(F)c4)c3n2)CC1
[11]
  EC50: > 350 µM (not active)
[12]
  EC50: > 350 µM (not active)

## C[C@@]12C(=O)Nc3ccccc3C(=O)N1[C@H]1c3cc(Br)ccc3OC[C@@H]1[C@@H]2c1ccccc1
[1]
  IC50: 11.8 µM (active)
[2]
  IC50: 16.2 µM (active)

## O=C(NCCOc1ccccc1)c1cc(C(=O)NCCOc2ccccc2)cc([N+](=O)[O-])c1
[1]
  IC50: 2.75 µM (active)
[15]
  EC50: > 60 µM (not active)
[16]
  EC50: 1.28 µM (active)
[2]
  IC50: 5.6 µM (active)

## Oc1ccc(N2CCN(C(c3ccccn3)c3nnnn3C3CCCC3)CC2)cc1 (centres undefined)
[6]
  IC50: 6.25 µM (active)

## Cc1ccc(C(CC(=O)O)C2CCOC(C)(C)C2)cc1 (centres undefined)
[11]
  EC50: > 350 µM (not active)
[12]
  EC50: > 350 µM (not active)

Source: ChEMBL document CHEMBL1201862, “PubChem BioAssay data set” (2004)
